Measured values from ChEMBL document CHEMBL4251632, “Synthesis and antidepressant-like activity of novel aralkyl piperazine derivatives targeting SSRI/5-HT1A/5-HT7” (Eur J Med Chem, 2018).

Legend:
[1] = molecular target: Sodium-dependent serotonin transporter (Rattus norvegicus) (UniProt P31652); test: Inhibition of [3H]serotonin reuptake in rat brain synaptosomes SERT at 10 uM after 15 mins by TopCount scintillation counting method relative to control; assay type: subcellular
[2] = molecular target: T1, 5-hydroxytryptamine receptor 1A (Homo sapiens) (UniProt P08908); test: Displacement of [3H]8-OH-DPAT from recombinant human 5-HT1A receptor expressed in HEK293 cell membranes at 10 uM after 60 mins by TopCount scintillation counting method relative to control
T1 sequence (whole entry): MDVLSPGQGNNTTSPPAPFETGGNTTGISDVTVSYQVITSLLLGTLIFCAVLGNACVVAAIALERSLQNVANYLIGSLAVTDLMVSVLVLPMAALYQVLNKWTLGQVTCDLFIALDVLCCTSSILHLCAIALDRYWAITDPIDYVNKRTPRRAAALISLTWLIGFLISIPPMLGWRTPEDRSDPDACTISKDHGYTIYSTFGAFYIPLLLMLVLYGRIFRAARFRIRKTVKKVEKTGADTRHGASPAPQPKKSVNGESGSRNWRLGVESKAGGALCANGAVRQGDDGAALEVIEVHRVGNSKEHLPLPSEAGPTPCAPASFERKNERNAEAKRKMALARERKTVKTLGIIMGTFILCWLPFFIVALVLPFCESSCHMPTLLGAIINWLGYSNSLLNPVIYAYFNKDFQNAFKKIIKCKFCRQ

[3] = molecular target: 5-hydroxytryptamine receptor 7 (Homo sapiens, UniProt P34969); test: Displacement of [3H]LSD from recombinant human 5-HT7 receptor expressed in CHO cell membranes at 10 uM after 120 mins by TopCount scintillation counting method relative to control
5-hydroxytryptamine receptor 7, sequence (P34969 whole entry): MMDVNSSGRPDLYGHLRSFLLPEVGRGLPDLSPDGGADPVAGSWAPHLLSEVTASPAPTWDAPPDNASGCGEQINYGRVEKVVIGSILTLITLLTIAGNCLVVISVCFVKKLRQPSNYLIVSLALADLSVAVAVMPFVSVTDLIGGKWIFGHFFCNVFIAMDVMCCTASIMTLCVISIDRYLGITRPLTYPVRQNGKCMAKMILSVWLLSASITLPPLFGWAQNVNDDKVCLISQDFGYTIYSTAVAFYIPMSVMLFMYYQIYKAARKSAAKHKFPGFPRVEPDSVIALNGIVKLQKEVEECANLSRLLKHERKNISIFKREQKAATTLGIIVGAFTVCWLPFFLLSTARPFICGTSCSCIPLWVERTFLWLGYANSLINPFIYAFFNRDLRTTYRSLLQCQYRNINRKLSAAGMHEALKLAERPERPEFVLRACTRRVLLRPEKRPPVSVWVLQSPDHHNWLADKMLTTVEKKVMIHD

Mus musculus [4] = test: Antidepressant-like activity in mouse assessed as reduction in immobility time at 40 mg/kg/day, po once daily for 7 days measured for last 4 mins of 6 mins test at 1 hr post last dose by forced swim test relative to control; assay type: functional; parameters: scale not given: the % may be the effect or the level left
Mus musculus [5] = test: Antidepressant-like activity in mouse assessed as reduction in immobility time at 10 mg/kg/day, po once daily for 7 days measured for last 4 mins of 6 mins test at 1 hr post last dose by forced swim test relative to control; assay type: functional; parameters: scale not given: the % may be the effect or the level left
Mus musculus [6] = test: Antidepressant-like activity in po dosed mouse assessed as reduction in immobility time administered once daily for 7 days measured for 5 mins at 1 hr post last dose by tail suspension test; assay type: functional, organism-based
Mus musculus [7] = test: Antidepressant-like activity in mouse assessed as reduction in immobility time at 40 mg/kg/day, po administered once daily for 7 days measured for 5 mins at 1 hr post last dose by tail suspension test relative to control; assay type: functional; parameters: scale not given: the % may be the effect or the level left
[8] = molecular target: T2, Alpha-1A adrenergic receptor (Homo sapiens, UniProt P35348); test: Displacement of [3H]prazosin from alpha1-adrenoceptor (unknown origin) in cerebral cortex membranes after 60 mins by TopCount scintillation counting method; assay type: cell membranes, Membrane
T2 sequence (P35348 whole entry): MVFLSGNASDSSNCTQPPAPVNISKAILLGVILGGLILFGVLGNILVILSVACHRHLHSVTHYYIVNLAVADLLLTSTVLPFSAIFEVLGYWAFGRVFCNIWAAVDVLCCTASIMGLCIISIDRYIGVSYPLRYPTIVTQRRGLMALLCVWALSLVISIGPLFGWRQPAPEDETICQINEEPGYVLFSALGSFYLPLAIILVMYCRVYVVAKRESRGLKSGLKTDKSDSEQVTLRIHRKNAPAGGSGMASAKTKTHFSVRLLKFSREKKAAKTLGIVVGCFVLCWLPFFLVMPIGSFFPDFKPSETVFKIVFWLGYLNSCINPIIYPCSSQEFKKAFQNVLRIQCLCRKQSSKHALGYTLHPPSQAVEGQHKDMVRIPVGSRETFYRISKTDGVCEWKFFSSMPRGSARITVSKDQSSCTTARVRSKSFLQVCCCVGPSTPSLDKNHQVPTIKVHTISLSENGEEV

[9] = AUC (0 to t) in Sprague-Dawley rat at 2 mg/kg, po administered as single dose by LC-MS/MS analysis; assay type: ADME, organism-based; conditions: in vivo
[10] = AUC (0 to infinity) in Sprague-Dawley rat at 2 mg/kg, po administered as single dose by LC-MS/MS analysis; assay type: ADME, organism-based; parameters: dose 2 mg/kg, time infinity, route oral; conditions: in vivo
[11] = Apparent clearance during terminal phase in Sprague-Dawley rat at 2 mg/kg, po administered as single dose by LC-MS/MS analysis; assay type: ADME, organism-based; conditions: in vivo, read-out: CLz/F (converted)
[12] = Apparent terminal half life in Sprague-Dawley rat at 2 mg/kg, po administered as single dose by LC-MS/MS analysis; assay type: ADME, organism-based; conditions: in vivo, read-out: betat1/2(app) (converted)
[13] = Tmax in Sprague-Dawley rat at 2 mg/kg, po administered as single dose by LC-MS/MS analysis; assay type: ADME, organism-based; conditions: in vivo
[14] = Cmax in Sprague-Dawley rat at 2 mg/kg, po administered as single dose by LC-MS/MS analysis; assay type: ADME, organism-based; parameters: dose 2 mg/kg, route oral; conditions: in vivo
[15] = Apparent terminal half life in Sprague-Dawley rat at 0.5 mg/kg, iv administered as single dose by LC-MS/MS analysis; assay type: ADME, organism-based; conditions: in vivo, read-out: betat1/2(app) (converted)
[16] = Tmax in Sprague-Dawley rat at 0.5 mg/kg, iv administered as single dose by LC-MS/MS analysis; assay type: ADME, organism-based; conditions: in vivo
[17] = Cmax in Sprague-Dawley rat at 0.5 mg/kg, iv administered as single dose by LC-MS/MS analysis; assay type: ADME, organism-based; parameters: dose 0.5 mg/kg, route intravenous; conditions: in vivo
[18] = Plasma concentration in Sprague-Dawley rat at 2 mg/kg, po administered as single dose measured after 1 hr by LC-MS/MS analysis; assay type: ADME, organism-based
[19] = Plasma concentration in Sprague-Dawley rat at 2 mg/kg, po administered as single dose measured after 2 hrs by LC-MS/MS analysis; assay type: ADME, organism-based
[20] = Plasma concentration in Sprague-Dawley rat at 2 mg/kg, po administered as single dose measured after 4 hrs by LC-MS/MS analysis; assay type: ADME, organism-based
[21] = Plasma concentration in Sprague-Dawley rat at 2 mg/kg, po administered as single dose measured after 6 hrs by LC-MS/MS analysis; assay type: ADME, organism-based
[22] = Plasma concentration in Sprague-Dawley rat at 2 mg/kg, po administered as single dose measured after 8 hrs by LC-MS/MS analysis; assay type: ADME, organism-based
[23] = Plasma concentration in Sprague-Dawley rat at 2 mg/kg, po administered as single dose measured after 9 hrs by LC-MS/MS analysis; assay type: ADME, organism-based
[24] = Plasma concentration in Sprague-Dawley rat at 0.5 mg/kg, iv administered as single dose measured after 5 mins by LC-MS/MS analysis; assay type: ADME, organism-based
[25] = Plasma concentration in Sprague-Dawley rat at 0.5 mg/kg, iv administered as single dose measured after 30 mins by LC-MS/MS analysis; assay type: ADME, organism-based
[26] = Plasma concentration in Sprague-Dawley rat at 0.5 mg/kg, iv administered as single dose measured after 1 hr by LC-MS/MS analysis; assay type: ADME, organism-based
[27] = Plasma concentration in Sprague-Dawley rat at 0.5 mg/kg, iv administered as single dose measured after 2 hrs by LC-MS/MS analysis; assay type: ADME, organism-based
[28] = Plasma concentration in Sprague-Dawley rat at 0.5 mg/kg, iv administered as single dose measured after 6 hrs by LC-MS/MS analysis; assay type: ADME, organism-based

Sodium-dependent serotonin transporter (Rattus norvegicus), sequence (P31652 whole entry): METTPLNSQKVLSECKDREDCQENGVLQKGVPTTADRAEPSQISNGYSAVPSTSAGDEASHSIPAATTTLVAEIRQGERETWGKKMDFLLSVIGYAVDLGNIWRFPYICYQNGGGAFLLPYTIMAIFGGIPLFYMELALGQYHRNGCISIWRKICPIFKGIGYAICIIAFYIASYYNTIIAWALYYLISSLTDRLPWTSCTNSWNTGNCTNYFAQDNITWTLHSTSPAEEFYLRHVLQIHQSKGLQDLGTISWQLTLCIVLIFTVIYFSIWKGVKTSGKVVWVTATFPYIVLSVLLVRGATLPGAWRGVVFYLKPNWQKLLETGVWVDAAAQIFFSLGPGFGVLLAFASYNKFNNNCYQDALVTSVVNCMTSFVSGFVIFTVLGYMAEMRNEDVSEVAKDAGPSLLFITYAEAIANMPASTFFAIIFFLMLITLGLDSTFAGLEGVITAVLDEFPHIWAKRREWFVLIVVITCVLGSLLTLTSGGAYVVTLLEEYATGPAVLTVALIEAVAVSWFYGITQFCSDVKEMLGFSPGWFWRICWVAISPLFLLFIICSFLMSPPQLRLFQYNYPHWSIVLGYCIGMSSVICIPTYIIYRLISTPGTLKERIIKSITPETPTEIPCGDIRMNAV

- inhibition [1]: > 90%
- inhibition [2]: > 90%
- inhibition [3]: > 90%
- Ki [8]: 0.028 µM
- AUC(0-t) [9]: 0.536 µg·h/mL
- AUC(0-inf) [10]: 0.898 µg·h/mL
- CL/F [11]: 2.4 L/h/kg
- half-life [12]: 6.1 h
- Tmax [13]: 1.7 h
- Cmax [14]: 0.0867 µg/mL
- half-life [15]: 3.3 h
- Tmax [16]: 6 min
- Cmax [17]: 0.342 µg/mL
- concentration at 1 h [18]: 0.0728 µg/mL
- concentration at 2 h [19]: 0.0767 µg/mL
- concentration at 4 h [20]: 0.0607 µg/mL
- concentration at 6 h [21]: 0.0647 µg/mL
- concentration at 8 h [22]: 0.0474 µg/mL
- concentration at 9 h [23]: 0.0349 µg/mL
- concentration at 5 min [24]: 0.342 µg/mL
- concentration at 0.5 h [25]: 0.0808 µg/mL
- concentration at 1 h [26]: 0.0513 µg/mL
- concentration at 2 h [27]: 0.0323 µg/mL
- concentration at 6 h [28]: 0.0124 µg/mL
SMILES: Fc1ccc(N2CCN(CCCc3c[nH]c4ccc(F)cc34)CC2)c(-c2ccccc2)c1
- Activity (Mus musculus [4]): 54%
- Activity (Mus musculus [5]): 24%
- Activity (Mus musculus [6]): Dose-dependent effect
- Activity (Mus musculus [7]): 39%
